In US6391599B1, “Sham-sensitive terminal oxidase gene from xylose-fermenting yeast” (priority 2000, dated 2002):
Entries after “also recorded” stand apart in the source; their conditions may differ.

Legend:
Type in all cases: cell-based, Pichia stipitis
Parameters in all cases: key to Rotenone sensitivity (rotenone-insensitive respiration): +: Cells sustained rotenone-insensitive respiration; −: Cells could not sustain rotenone-insensitive respiration
[1] = system: P. stipitis FPL-Shi31 (sto1-Δ); experiment: Respiration measurement (oxygen uptake) with inhibitor; conditions: for Rotenone sensitivity (rotenone-insensitive respiration): 0.1 mM rotenone, FPL-Shi31; for Sensitivity of respiration to rotenone (in words): sto1Δ mutant
Protocol: (§1) P. stipitis strains were grown overnight in YNBUP-xylose (2%) medium under aerobic conditions. Then half of the overnight-grown cells were transferred to 25 mL fresh medium to grow for 16 h to mid-log phase under the same conditions. The cells were harvested and washed in an assay buffer containing 20 mM potassium phosphate (pH7.0) and 5 mM magnesium chloride. The cells were resuspended in 500 μL of the same buffer for assays. Oxygen uptake was measured by using a Clark type of electrode (Yellow Spring Instrument). The assay was performed in an assay buffer containing 20 mM potassium phosphate, 5 mM magnesium chloride, plus xylose or glucose (2%) as the substrate at 30° C. The assay buffer was saturated with air before the experiment. Ten to fifty μL of cells were injected into the assay chamber and the total reaction volume was 2 mL. Antimycin A, SHAM or rotenone was dissolved in dimethyl formamide while potassium cyanide was dissolved in water. Inhibitor solution was injected into the chamber after adding the cells.

[2] = system: P. stipitis FPL-Shi21 (cyc1-Δ); experiment: as above; conditions: for Rotenone sensitivity (rotenone-insensitive respiration): 0.1 mM rotenone, FPL-Shi21; for Sensitivity of respiration to rotenone (in words): cyc1Δ mutant; for Effect on respiration: FPL-Shi21 (cyc1Δ)
Protocol: as §1

[3] = system: P. stipitis FPL-UC7 (ura3-3); experiment: as above; conditions: for Rotenone sensitivity (rotenone-insensitive respiration): 0.1 mM rotenone
Protocol: as §1

[4] = system: P. stipitis wild-type CBS 6054; experiment: Respiration measurement (oxygen uptake, Clark type electrode) with inhibitor; conditions: 0.1 mM rotenone
Protocol: as §1

Q: For `C=C(C)[C@H]1Cc2c(ccc3c2O[C@@H]2COc4cc(OC)c(OC)cc4[C@@H]2C3=O)O1` [rotenone], which “Rotenone sensitivity (rotenone-insensitive respiration)” value (from here on “Rotenone sensitivity”) ([1]; glucose-grown cells) is on record?
A: −

Q: What about the “Rotenone sensitivity” value ([1]; xylose-grown cells) of the same molecule?
A: −

Q: What about the “Sensitivity of respiration to rotenone (in words)” value (shortened to “Sensitivity of respiration”) ([1]; glucose-grown cells) of the same molecule?
A: rotenone-sensitive

Q: And the “Sensitivity of respiration” value ([1]; xylose-grown cells)?
A: rotenone-sensitive

Q: What about the “Rotenone sensitivity” value ([2]; glucose-grown cells) of the same molecule?
A: −

Q: And the “Rotenone sensitivity” value ([2]; xylose-grown cells)?
A: −

Q: And the “Sensitivity of respiration” value ([2]; glucose-grown cells)?
A: rotenone-sensitive

Q: What about the “Sensitivity of respiration” value ([2]; xylose-grown cells) of the same molecule?
A: rotenone-sensitive

Q: And the “Rotenone sensitivity” value ([3]; glucose-grown cells)?
A: −

Q: And the “Rotenone sensitivity” value ([3]; xylose-grown cells)?
A: +

Q: What about the “Sensitivity of respiration” value ([3]; glucose-grown cells) of the same molecule?
A: rotenone-sensitive

Q: What about the “Sensitivity of respiration” value ([3]; xylose-grown cells) of the same molecule?
A: insensitivity to rotenone

Q: And the “Rotenone sensitivity” value ([4]; glucose-grown cells, CBS 6054)?
A: −

Q: And the “Sensitivity of respiration” value ([4]; glucose-grown cells, CBS 6054)?
A: could not sustain any respiration; also recorded: rotenone-sensitive

Q: What about the “Time after injection until cells died and floated in the chamber” value ([4]; glucose-grown cells, CBS 6054) of the same molecule?
A: ≤ 1 min

Q: What about the “Oxygen consumption rate, +rotenone” value ([4]; xylose-grown cells) of the same molecule?
A: 4.6 ± 0.2 µM/mg/h

Q: And the “Rotenone sensitivity” value ([4]; xylose-grown cells, CBS 6054)?
A: +

Q: What about the “Sensitivity of respiration” value ([4]; xylose-grown cells, CBS 6054) of the same molecule?
A: respiration was sustained; also recorded: insensitivity to rotenone

Q: How did the Effect on respiration ([1]; 10 μM antimycin A, sto1Δ mutant cells) turn out when antimycin A was run?
A: respiration dropped to zero

Q: And the Effect on respiration [2]?
A: insensitivity

Q: Which “Effect on respiration trace” value ([1]; 4 mM SHAM, sto1Δ cells pre-grown on YNB-xylose (2%)) does the source give for `O=C(NO)c1ccccc1O` [SHAM, salicyl hydroxymate] here?
A: did not show any change

Q: What about the Effect on respiration [2] of the same molecule?
A: completely blocked
